Results from ChEMBL document CHEMBL5338747, “Discovery of Quaternized Pyridine-Thiazole-Pleuromutilin Derivatives with Broad-Spectrum Antibacterial and Potent Anti-MRSA Activity” (J Med Chem, 2023).
Converted amounts (≈) assume the structure as drawn.

Key:
Escherichia coli [1] = assay: Antibacterial activity against Escherichia coli ATCC 25922 assessed as inhibition of bacterial growth incubated for 24 hrs by broth microdilution method; format: functional
Acinetobacter baumannii = assay: Antibacterial activity against Acinetobacter baumannii ATCC 19606 assessed as inhibition of bacterial growth incubated for 24 hrs by broth microdilution method; format: functional
[2] = system: Staphylococcus epidermidis; assay: Antibacterial activity against methicillin-resistant Staphylococcus epidermidis ATCC 51625 assessed as inhibition of bacterial growth incubated for 24 hrs by broth microdilution method; format: functional
Escherichia coli [3] = assay: Antibacterial activity against Escherichia coli CMCC 44103 assessed as inhibition of bacterial growth incubated for 24 hrs by broth microdilution method; format: functional
Salmonella enterica = assay: Antibacterial activity against Salmonella enterica ATCC 14028 assessed as inhibition of bacterial growth incubated for 24 hrs by broth microdilution method; format: functional
Staphylococcus aureus [4] = assay: Antibacterial activity against […] assessed as inhibition of bacterial growth incubated for 24 hrs by broth microdilution method; format: functional; settings: ATCC 29213
Staphylococcus aureus [5] = assay: Antibacterial activity against methicillin-resistant Staphylococcus aureus ATCC 33591 assessed as inhibition of bacterial growth incubated for 24 hrs by broth microdilution method; format: functional
Staphylococcus aureus [6] = assay: Antibacterial activity against methicillin-resistant Staphylococcus aureus ATCC 43300 assessed as inhibition of bacterial growth incubated for 24 hrs by broth microdilution method; format: functional
[7] = Aqueous solubility of the compound in physiological saline measured after 12 hrs by UV spectrophotometric analysis; format: physicochemical

Compound	MIC (Escherichia coli [1]) [µg/mL]	MIC (Acinetobacter baumannii) [µg/mL]	MIC [2] [µg/mL]	MIC (Escherichia coli [3]) [µg/mL]	MIC (Salmonella enterica) [µg/mL]	MIC (Staphylococcus aureus [4]) [µg/mL]	MIC (Staphylococcus aureus [5]) [µg/mL]	MIC (Staphylococcus aureus [6]) [µg/mL]	solubility at 12 h [7] [µM]
C=C[C@]1(C)C[C@@H](OC(=O)CSc2nc(-c3cc[n+](Cc4ccc(-c5ccccc5)cc4)cc3)cs2)[C@]2(C)[C@H](C)CC[C@]3(CCC(=O)[C@H]32)[C@@H](C)[C@@H]1O.[Br-]	1	2	2	1	2	0.5	2	1	271
C=C[C@]1(C)C[C@@H](OC(=O)CSc2nnc(-c3cc[n+](Cc4ccccc4)cc3)o2)[C@]2(C)[C@H](C)CC[C@]3(CCC(=O)[C@H]32)[C@@H](C)[C@@H]1O.[Br-]	128	128	128	64	32	16	64	32	–
Br.C=C[C@]1(C)C[C@@H](OC(=O)CSc2nnc(-c3cc[n+](Cc4ccc([N+](=O)[O-])cc4)cc3)o2)[C@]2(C)[C@H](C)CC[C@]3(CCC(=O)[C@H]32)[C@@H](C)[C@@H]1O	> 128	64	32	128	128	32	32	64	–
C=C[C@]1(C)C[C@@H](OC(=O)CSc2nc(-c3cc[n+](CCCCCCCCCC)cc3)cs2)[C@]2(C)[C@H](C)CC[C@]3(CCC(=O)[C@H]32)[C@@H](C)[C@@H]1O.[Br-]	2	4	2	4	1	0.25	1	2	203
C=C[C@]1(C)C[C@@H](OC(=O)CSc2nnc(-c3ccncc3)o2)[C@]2(C)[C@H](C)CC[C@]3(CCC(=O)[C@H]32)[C@@H](C)[C@@H]1O	> 128	128 (≈ 237 µM)	128 (≈ 237 µM)	128 (≈ 237 µM)	64 (≈ 119 µM)	16 (≈ 29.6 µM)	64 (≈ 119 µM)	128 (≈ 237 µM)	–
C=C[C@]1(C)C[C@@H](OC(=O)CSc2nc(-c3cc[n+](Cc4cc(C)cc(C)c4)cc3)cs2)[C@]2(C)[C@H](C)CC[C@]3(CCC(=O)[C@H]32)[C@@H](C)[C@@H]1O.[Br-]	32	8	128	32	16	128	64	128	543
Br.C=C[C@]1(C)C[C@@H](OC(=O)CSc2nc(-c3cc[n+](Cc4ccc([N+](=O)[O-])o4)cc3)cs2)[C@]2(C)[C@H](C)CC[C@]3(CCC(=O)[C@H]32)[C@@H](C)[C@@H]1O	8	16	8	64	32	4	32	8	1650
C=C[C@]1(C)C[C@@H](OC(=O)CSc2nc(-c3cc[n+](Cc4ccc5ccccc5c4)cc3)cs2)[C@]2(C)[C@H](C)CC[C@]3(CCC(=O)[C@H]32)[C@@H](C)[C@@H]1O.[Br-]	16	16	4	8	4	4	16	4	483
C=C[C@]1(C)C[C@@H](OC(=O)CSc2nc(-c3cc[n+](Cc4ccc(C(F)(F)F)cc4)cc3)cs2)[C@]2(C)[C@H](C)CC[C@]3(CCC(=O)[C@H]32)[C@@H](C)[C@@H]1O.[Br-]	1	2	2	2	2	0.25	2	4	899
C=C[C@]1(C)C[C@@H](OC(=O)CSc2nc(-c3cc[n+](Cc4ccc(C#N)cc4)cc3)cs2)[C@]2(C)[C@H](C)CC[C@]3(CCC(=O)[C@H]32)[C@@H](C)[C@@H]1O.[Br-]	2	32	16	8	32	0.125	64	2	683
C=C[C@]1(C)C[C@@H](OC(=O)CSc2nc(-c3ccncc3)cs2)[C@]2(C)[C@H](C)CC[C@]3(CCC(=O)[C@H]32)[C@@H](C)[C@@H]1O	64 (≈ 115 µM)	64 (≈ 115 µM)	32 (≈ 57.7 µM)	32 (≈ 57.7 µM)	32 (≈ 57.7 µM)	8 (≈ 14.4 µM)	16 (≈ 28.8 µM)	32 (≈ 57.7 µM)	–
C=C[C@]1(C)C[C@@H](OC(=O)CSc2nc(-c3cc[n+](Cc4cc(OC)cc(OC)c4)cc3)cs2)[C@]2(C)[C@H](C)CC[C@]3(CCC(=O)[C@H]32)[C@@H](C)[C@@H]1O.[Br-]	32	8	128	8	16	128	64	128	912
C=C[C@]1(C)C[C@@H](OC(=O)CSc2nc(-c3cc[n+](Cc4ccccc4)cc3)cs2)[C@]2(C)[C@H](C)CC[C@]3(CCC(=O)[C@H]32)[C@@H](C)[C@@H]1O.[Br-]	–	4	4	0.25	–	0.125	1	–	871
C=C[C@]1(C)C[C@@H](OC(=O)CSc2nnc(-c3cc[n+](Cc4ccc(C)cc4)cc3)o2)[C@]2(C)[C@H](C)CC[C@]3(CCC(=O)[C@H]32)[C@@H](C)[C@@H]1O.[Br-]	32	128	64	64	32	4	16	16	–
C=C[C@]1(C)C[C@@H](OC(=O)CSc2nc(-c3cc[n+](Cc4ccc(Br)cc4)cc3)cs2)[C@]2(C)[C@H](C)CC[C@]3(CCC(=O)[C@H]32)[C@@H](C)[C@@H]1O.[Br-]	2	2	8	0.5	4	0.5	2	1	760
C=C[C@]1(C)C[C@@H](OC(=O)CSc2nc(-c3cc[n+](CCCCCCCCCCCCCCCC)cc3)cs2)[C@]2(C)[C@H](C)CC[C@]3(CCC(=O)[C@H]32)[C@@H](C)[C@@H]1O.[Br-]	> 128	> 128	> 128	> 128	> 128	64	> 128	64	187
C=C[C@]1(C)C[C@@H](OC(=O)CSc2nc(-c3cc[n+](Cc4cc(F)cc(F)c4)cc3)cs2)[C@]2(C)[C@H](C)CC[C@]3(CCC(=O)[C@H]32)[C@@H](C)[C@@H]1O.[Br-]	16	8	64	32	16	64	64	64	803
C=C[C@]1(C)C[C@@H](OC(=O)CSc2nnc(-c3cc[n+](Cc4ccc(C#N)cc4)cc3)o2)[C@]2(C)[C@H](C)CC[C@]3(CCC(=O)[C@H]32)[C@@H](C)[C@@H]1O.[Br-]	64	> 128	64	64	32	16	32	16	–
